{
  "source": "patent US20220362386A1",
  "about": "“LIQUID COMPOSITIONS COMPRISING A LEVODOPA AMINO ACID CONJUGATE AND USES THEREOF” (NeuroDerm, Ltd., priority 2019, published 2022)",
  "key": {"[1]": {"experiment": "Comparative formulation tests, physical stability (Tables 32a-c, 33a-c)", "format": "physicochemical", "details": "LDAA TFA salt/CD formulation; for Physical stability (visual), Day 1: Day 1, room temperature; for Physical stability (visual), Day 2: Day 2, room temperature; for Physical stability (visual), Day 5: Day 5, room temperature after two days at 2-8° C.; for Physical stability (visual), Day 6: Day 6, room temperature after two days at 2-8° C.; for Physical stability (visual), Day 40: Day 40, returned to 2-8° C.", "protocol": "It is noted that the formulations were similarly to those above; however, CD was added, and further, the amounts of the antioxidants, i.e., ascorbic acid and NAC, were added at three different concentrations, as detailed in Tables 32a-c below. Further, an additional amount of arginine was added to the solution in order to adjust the pH to a physiologically acceptable pH.\nThe formulations prepared as detailed in Tables 32a, 32b and 32c were (a) held at room temperature for two days; (b) transferred to a refrigerator (2-8° C.) for two days; and (c) transferred from the refrigerator to room temperature for an additional two days, during which they were assessed again for precipitants. The formulations were then returned to the refrigerator (2-8° C.) and assessed for precipitants on day 40. The physical stability of each formulation was assessed on the first two days and again on the last two days. The physical stability of the formulations was assessed visually. A clear solution was considered to be stable, while a solution comprising precipitants was considered to be physically unstable. The stability results of the formulations of Tables 32a, 32b and 32c are detailed in Tables 33a, 33b and 33c, respectively."}, "[2]": {"experiment": "In-vitro metabolism of LDAA compounds using liver microsomes", "format": "in vitro ADME, human", "details": "for half-life at 0.1 μM: pH 7.4, 1.0E−07M, 0.1 mg/mL microsomal protein", "protocol": "The stability of test compounds in pooled human liver microsomes was determined on 96-well plates, wherein the test compounds were quantified at five time points by HPLC-MS/MS analysis. The assay matrix included mixed gender and a pool of 50 human liver microsomes, wherein the final microsomal protein concentration was 0.1 mg/mL. The test concentration was 0.1 μM with 0.01% DMSO, 0.25% acetonitrile and 0.25% methanol.\nEach test compound was pre-incubated for five minutes with pooled liver microsomes in phosphate buffer (pH 7.4) in a 37° C. shaking water-bath. The reaction was initiated by adding a nicotinamide adenine dinucleotide phosphate (NADPH)-generating system and incubating for 0, 15, 30, 45, and 60 min. The reaction was stopped by transferring the incubation mixture to acetonitrile/methanol. Samples were then mixed and centrifuged, wherein the supernatants were used for HPLC-MS/MS analysis.\nIn each assay the four reference compounds propranolol, imipramine, verapamil and terfenadine were tested, wherein the propranolol and the imipramine are known to be relatively stable, while the verapamil and the terfenadine are known to be readily metabolized in human liver microsomes.\nAll samples were analyzed by HPLC-MS/MS using selected reaction monitoring. The HPLC system consisted of a binary LC pump with autosampler, a C-18 column, and a gradient. The conditions were adjusted when necessary.\nPeak areas corresponding to the test compound were recorded. The amount of each compound remaining was calculated by comparing the peak area at each time point to time zero. The half-life is calculated from the slope of the initial linear range of the logarithmic curve of compound remaining (%) vs. time, assuming first order kinetics. In addition, the intrinsic clearance (Clint) was calculated from the half-life using the following equation:\nClint(μL/min/mg protein)=0.693/(t1/2×protein concentration)\nThe results of the in-vitro human liver microsome metabolism tests of various LDAA compounds (10^−7M), in their TFA salt forms, are provided in FIG. 1 and in Table 17, which presents the % of the compound remaining at times 0, 15, 30, 45 and 60 minutes, two half-life measurements and the Clint, calculated as detailed above."}, "P-gp": {"tested_on": "P-gp", "experiment": "In-vitro absorption, Caco-2 A-B permeability", "format": "in vitro ADME, human", "details": "human, Caco-2, pH 7.4, with verapamil 100 μM on both the A and B sides, Caco-2 A-B, in the presence of verapamil", "protocol": "(§1) Conditions may be adjusted when necessary.\n(§2) D denotes donor and R is receiver. […] V is the volume of the donor or receiver.\n(§3) The test was performed with and without verapamil, which is a permeation inhibitor, and the results are presented in Tables 22 (without verapamil) and 34 (with verapamil)."}, "[3]": {"experiment": "In-vitro absorption, Caco-2 A-B permeability", "format": "in vitro ADME, human", "details": "human, Caco-2, pH 7.4, Caco-2 A-B, without verapamil; for Papp A→B at 60 min, 10 μM: 1.0E−05M", "protocol": "as §1, §2, §3"}, "[4]": {"details": "NB 144-15, ~0.1% Asc + ~0.1% NAC"}, "[5]": {"details": "NB 144-18, ~0.4% Asc + ~0.4% NAC"}, "[6]": {"details": "NB 144-20, ~0.8% Asc + ~0.8% NAC"}, "[7]": {"details": "incubation time 0 minutes, 1.0E−07M"}, "[8]": {"details": "incubation time 15 minutes, 1.0E−07M"}, "[9]": {"details": "incubation time 30 minutes, 1.0E−07M"}, "[10]": {"details": "incubation time 45 minutes, 1.0E−07M"}, "[11]": {"details": "incubation time 60 minutes, 1.0E−07M"}, "[12]": {"details": "read-out: Percent Recovery Mean"}},
  "note": "Where a name gives a salt, the structure may show the parent alone. Read-outs that look alike come from different tables or passages of the source.",
  "data": [
    {"smiles": "N[C@@H](CSC[C@@H](NC(=O)[C@@H](N)Cc1ccc(O)c(O)c1)C(=O)O)C(=O)O", "note": "(single isomer, unassigned; peak 1) [LD-LA1 TFA salt, Levodopa Lanthionine Peak 1 TFA Salt]", "values": [
      {"measurement": "Physical stability (visual), Day 1", "setting": "[1]; [4]", "value": "Stable"},
      {"measurement": "Physical stability (visual), Day 2", "setting": "[1]; [4]", "value": "Stable"},
      {"measurement": "Physical stability (visual), Day 5", "setting": "[1]; [4]", "value": "Stable"},
      {"measurement": "Physical stability (visual), Day 6", "setting": "[1]; [4]", "value": "Stable"},
      {"measurement": "Physical stability (visual), Day 40", "setting": "[1]; [4]", "value": "Stable"},
      {"measurement": "Physical stability (visual), Day 1", "setting": "[1]; [5]", "value": "Precipitated"},
      {"measurement": "Physical stability (visual), Day 2", "setting": "[1]; [5]", "value": "Precipitated"},
      {"measurement": "Physical stability (visual), Day 5", "setting": "[1]; [5]", "value": "Precipitated"},
      {"measurement": "Physical stability (visual), Day 6", "setting": "[1]; [5]", "value": "Precipitated"},
      {"measurement": "Physical stability (visual), Day 40", "setting": "[1]; [5]", "value": "Precipitated"},
      {"measurement": "Physical stability (visual), Day 1", "setting": "[1]; [6]", "value": "Stable"},
      {"measurement": "Physical stability (visual), Day 2", "setting": "[1]; [6]", "value": "Stable"},
      {"measurement": "Physical stability (visual), Day 5", "setting": "[1]; [6]", "value": "Stable"},
      {"measurement": "Physical stability (visual), Day 6", "setting": "[1]; [6]", "value": "Stable"},
      {"measurement": "Physical stability (visual), Day 40", "setting": "[1]; [6]", "value": "Stable"},
      {"measurement": "half-life at 0.1 μM", "setting": "[2]; both sexes, human, pooled human liver microsomes, read-out: Half-Life (minute) 1st", "value": 139, "unit": "min"},
      {"measurement": "half-life at 0.1 μM", "setting": "[2]; both sexes, human, pooled human liver microsomes, read-out: Half-Life (minute) 2nd", "value": 87.3, "unit": "min"},
      {"measurement": "half-life at 0.1 μM", "setting": "[2]; both sexes, human, pooled human liver microsomes, read-out: Half-Life (minute) Mean", "value": "> 60", "unit": "min"},
      {"measurement": "microsomal CLint at 0.1 μM", "setting": "[2]; both sexes, human, pooled human liver microsomes, pH 7.4, calculated from the half-life, 1.0E−07M", "value": "< 116", "unit": "µL/min/mg"},
      {"measurement": "% Compound Remaining 1st", "setting": "[2]; [7]", "value": 100, "unit": "%"},
      {"measurement": "% Compound Remaining 2nd", "setting": "[2]; [7]", "value": 100, "unit": "%"},
      {"measurement": "% Compound Remaining Mean", "setting": "[2]; [7]", "value": 100, "unit": "%"},
      {"measurement": "% Compound Remaining 1st", "setting": "[2]; [8]", "value": "{129.4%"},
      {"measurement": "% Compound Remaining 2nd", "setting": "[2]; [8]", "value": 110.4, "unit": "%"},
      {"measurement": "% Compound Remaining Mean", "setting": "[2]; [8]", "value": 110, "unit": "%"},
      {"measurement": "% Compound Remaining 1st", "setting": "[2]; [9]", "value": "{125.6%"},
      {"measurement": "% Compound Remaining 2nd", "setting": "[2]; [9]", "value": 77.6, "unit": "%"},
      {"measurement": "% Compound Remaining Mean", "setting": "[2]; [9]", "value": 78, "unit": "%"},
      {"measurement": "% Compound Remaining 1st", "setting": "[2]; [10]", "value": 79.7, "unit": "%"},
      {"measurement": "% Compound Remaining 2nd", "setting": "[2]; [10]", "value": 77.9, "unit": "%"},
      {"measurement": "% Compound Remaining Mean", "setting": "[2]; [10]", "value": 79, "unit": "%"},
      {"measurement": "% Compound Remaining 1st", "setting": "[2]; [11]", "value": 74.2, "unit": "%"},
      {"measurement": "% Compound Remaining 2nd", "setting": "[2]; [11]", "value": 65.6, "unit": "%"},
      {"measurement": "% Compound Remaining Mean", "setting": "[2]; [11]", "value": 70, "unit": "%"},
      {"measurement": "recovery at 60 min, 10 μM", "setting": "P-gp; read-out: Percent Recovery 1st", "value": 58, "unit": "%"},
      {"measurement": "recovery at 60 min, 10 μM", "setting": "P-gp; read-out: Percent Recovery 2nd", "value": 67, "unit": "%"},
      {"measurement": "recovery at 60 min, 10 μM", "setting": "P-gp; [12]", "value": 62, "unit": "%"},
      {"measurement": "Papp A→B at 60 min, 10 μM", "setting": "[3]; read-out: Permeability 1st", "value": 0.2, "unit": "×10⁻⁶ cm/s"},
      {"measurement": "Papp A→B at 60 min, 10 μM", "setting": "[3]; read-out: Permeability 2nd", "value": 0.21, "unit": "×10⁻⁶ cm/s"},
      {"measurement": "Papp A→B at 60 min, 10 μM", "setting": "[3]; read-out: Permeability Mean", "value": 0.2, "unit": "×10⁻⁶ cm/s"},
      {"measurement": "recovery at 60 min, 10 μM", "setting": "[3]; read-out: Percent Recovery 1st", "value": 82, "unit": "%"},
      {"measurement": "recovery at 60 min, 10 μM", "setting": "[3]; read-out: Percent Recovery 2nd", "value": 77, "unit": "%"},
      {"measurement": "recovery at 60 min, 10 μM", "setting": "[3]; [12]", "value": 79, "unit": "%"}
    ]}
  ]
}
